The values that follow come from patent US20260258035A1, “FIVE-MEMBERED AND SIX-MEMBERED NITROGEN-CONTAINING COMPOUND, AND INTERMEDIATE, PREPARATION METHOD AND USE THEREOF” (HANGZHOU SYNRX THERAPEUTICS BIOMEDICAL TECHNOLOGY CO., LTD., priority 2022, published 2026).

Data set [1] is described as follows: Solubility assay (FaSSGF / FaSSIF). In kind it is physicochemical. Conditions: kinetic from dmso stock, 2 h at 25° C. As for the experimental part:
1). Preparation of Solutions:
The FaSSGF solution was prepared as follows: • a) preparation of FaSSGF buffer: dissolve 2.0 g of NaCl as the raw material in about 0.9 L of purified water; • b) adjustment of the pH of the buffer: adjust the pH of the buffer to 1.6 with 1N HCL, and replenish the buffer with purified water to the volume of 1 L; and • c) preparation of FaSSGF solution by addition of FaSSGF powder: add 0.06 g of the FaSSGF powder to about 0.5 L of the buffer, stir until the powder was completely dissolved, and make up for the volume (1 L) with the buffer.
The FaSSIF solution was prepared as follows: • a) preparation of FaSSIF buffer: dissolve 0.42 g of NaOH, 3.44 g of anhydrous NaH2PO4, and 6.19 g of NaCl as raw materials in about 0.9 L of purified water; • b) adjustment the pH of the buffer: adjust the pH of the buffer to 6.5 with 1 N NaOH or 1 N HCL, and replenish the buffer with purified water to the volume of 1 L; and • c) preparation of FaSSIF solution by addition of FaSSIF powder: add 2.24 g of the FaSSIF powder to about 0.5 L of the buffer, stir until the powder was completely dissolved, and make up for the volume (1 L) with the buffer.
2). Preparation of the Solution of Control Compound:
The control compound was weighed and dissolved in DMSO to 10 mM to obtain a stock solution.
3) Preparation of the Solution of Compound to be Tested:
The compound to be tested was formulated into a 10 mM DMSO stock solution.
4) Preparation of Internal Standard Solution:
a) The internal standard was weighed and dissolved in DMSO to 10 mM to obtain an internal standard stock solution (ISTD stock solution).
b) The internal standard stock solution was diluted to 500 nM (Tolbutamide) with an ACN:methano mixture (volume ratio: 1:1) to obtain a quenching solution.
a) The FaSSGF solution at pH 1.6 and the FaSSIF solution at pH 6.5 were pre-warmed; and then, the compound was injected into the buffer.
Once done, the samples were centrifuged at 12,000 rpm for 10 min, and the supernatant was transferred to a new tube. The supernatant was diluted 10-fold and 100-fold with the FaSSGF solution at pH 1.6 or the FaSSIIF solution at pH 6.5. 20 μL of each sample (1×, 10×, 100× and standard curve) was added to 500 μL of the IS solution. The resulting mixture was vortexed vigorously for 1 min and centrifuged at 4,500 rpm for 15 min at 4° C. 150 μL of the supernatant was transferred for LC-MS/MS sample analysis.

The next data set concerns the target PARG (Homo sapiens, UniProt Q86W56). Description: Biochemical assay (PARG, TFMU-ADPr substrate).
A short description of a further data set: Mouse PK assay. In kind it is in vivo. Conditions: CD1 mice, oral administration, 30 mg/kg, plasma; for bioavailability / half-life / MRT: mouse; for half-life: read-out: Half-life period (converted); for MRT: read-out: Mean residence time. As for the experimental part:
The goal of this assay was to study the pharmacokinetics of the test compound on CD1 mice (6-8 weeks old, Zhejiang Vegavit Bio-technology Co., Ltd.) after oral administration. The specific experimental procedures were as follows: • 1) the compound was dissolved in 8% DMSO+72% PEG 400+20% ([…]); and • 2) blood samples were collected, with 0.03 mL collected at 0.25 h, 0.5 h, 1 h, 2 h, 4 h, 8 h, and 24 h, and EDTA-K2 was added. CD1 mice: Approximately 0.03 mL of blood was collected at each time point. The blood was centrifuged for 5 min at 4000 g in a centrifuge at 4° C. to collect plasma. Plasma samples were aliquoted into clean polyethylene microcentrifuge tubes and then stored in a freezer at −75±15° C. before analysis; and • 3) samples were analyzed, and the concentration of the compound in each plasma sample was analyzed with LC-MS/MS. For plasma measurements, pharmacokinetic parameters were calculated using WinNonlin (Phoenix™, version 8.3) or other similar software.

For data set [2], the system named is Human breast squamous carcinoma cells HCC1806. Description: Cell function assay (In-Cell Western, PAR/pADPr after MMS). In kind it is cell-based. Conditions: read-out: IC50 (nM) in cell function assay. An outline of the steps: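 HCC1806 cells adhered 24 h at 37 °C, 5% CO2, then were pretreated 1 h with compound (30000 nM down to 1 nM, plus 0 nM) or DMSO. MMS was then added at 0.5 mM final for 1 h before In-Cell Western detection of PAR/pADPr.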

Where [3] appears, read: fassgf or other biorelevant, FaSSGF solution pH 1.6, 100 μM from DMSO stock, read-out: FaSSGF solubility.
[4] abbreviates: FaSSIF solution pH 6.5, 100 μM from DMSO stock, read-out: FaSSIF solubility.
Where [5] appears, read: 4 nM PARG, 66.2 uM TFMU-ADPr, 3 min at room temperature.
The mark [6] stands for this setting: HCC1806, In-Cell Western, MMS treatment.
Where [7] appears, read: HCC1806, compound 1 h then 0.5 mM MMS 1 h, PAR/pADPr antibody, In-Cell Western.

Values after ≈ are worked out from the molar mass of the structure shown. Like-named read-outs stand apart in the source and are kept apart here. Where only a bound is given, the exact number is not on record here.

PARG, sequence (Q86W56 whole entry): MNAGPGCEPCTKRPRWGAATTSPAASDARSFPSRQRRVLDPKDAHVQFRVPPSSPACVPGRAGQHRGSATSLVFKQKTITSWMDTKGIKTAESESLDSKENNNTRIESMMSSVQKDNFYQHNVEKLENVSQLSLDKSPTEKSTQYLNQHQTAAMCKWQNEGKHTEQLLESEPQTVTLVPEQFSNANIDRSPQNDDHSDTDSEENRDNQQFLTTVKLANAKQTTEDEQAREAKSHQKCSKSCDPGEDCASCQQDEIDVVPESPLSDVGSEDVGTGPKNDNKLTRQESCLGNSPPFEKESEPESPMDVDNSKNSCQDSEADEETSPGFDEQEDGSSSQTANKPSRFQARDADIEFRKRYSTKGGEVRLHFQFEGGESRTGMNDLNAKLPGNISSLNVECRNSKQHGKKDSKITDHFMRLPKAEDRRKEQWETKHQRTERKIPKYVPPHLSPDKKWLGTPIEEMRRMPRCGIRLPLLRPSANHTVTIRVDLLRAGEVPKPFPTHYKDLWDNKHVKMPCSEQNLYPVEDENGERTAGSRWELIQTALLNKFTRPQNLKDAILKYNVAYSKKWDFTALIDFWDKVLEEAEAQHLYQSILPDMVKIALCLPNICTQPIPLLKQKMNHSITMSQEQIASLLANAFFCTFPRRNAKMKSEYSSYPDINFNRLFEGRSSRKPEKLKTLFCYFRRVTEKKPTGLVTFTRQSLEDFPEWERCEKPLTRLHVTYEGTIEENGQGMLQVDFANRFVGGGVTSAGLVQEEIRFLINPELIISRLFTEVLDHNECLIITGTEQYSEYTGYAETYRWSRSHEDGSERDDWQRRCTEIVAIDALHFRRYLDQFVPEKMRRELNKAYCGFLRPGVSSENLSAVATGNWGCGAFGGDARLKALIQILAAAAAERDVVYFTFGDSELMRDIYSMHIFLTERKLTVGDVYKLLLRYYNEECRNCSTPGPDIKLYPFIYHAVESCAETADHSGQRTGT

What is called solubility is the concentration that dissolves in the medium under given conditions. As usually defined, the IC50 is the concentration that gives 50% inhibition. For orientation: bioavailability means the share of a dose that reaches the circulation, judged against a reference dose that is usually intravenous. Higher therefore signals much systemic uptake. A word on the half-life: it is how long it takes for the measured level to halve. On to `CC(C)C(=O)N1CCN(c2cc(S(=O)(=O)NC3(C#N)CC3)cn3c(-c4nnc(C(F)(F)F)s4)ncc23)CC1` [Example 167, N-(1-cyanocyclopropyl)-8-(4-isobutyrylpiperazin-1-yl)-3-(5-(trifluoromethyl)-1,3,4-thiadiazol-2-yl)imidazo[1,5-a]pyridine-6-sulfonamide], for which the solubility at 2 h in data set [1] (setting [3]) is 57.5 µM (≈ 32.7 µg/mL). The solubility at 2 h in data set [1] (setting [4]) came to 96.5 µM (≈ 54.9 µg/mL). For the same compound, the IC50 at PARG (setting [5]) is less than 100 nM. Besides, on PARG (PARG, TFMU-ADPr substrate), the IC50 is 16.6 nM. Besides, in the data set “Mouse PK assay”, the “Area under the curve (0-last; hr*ng/mL)” value amounted to 29273 ng·h/mL, the “Peak concentration” value turned out to be 4087 ng/mL, the “Time to peak” value came to 1.67 h and the bioavailability came out at 85%. Moreover, in the data set “Mouse PK assay”, the half-life is 2.75 h and the MRT was 4.81 h. In addition, the IC50 in data set [2] (setting [6]) is 6.34 nM. Also, the IC50 in data set [2] (setting [7]) was less than 100 nM.
As to `CC(C)C(=O)N1CCN(c2cc(S(=O)(=O)NC3(C#N)CC3)cn3c(-c4nnc(C(F)F)s4)ncc23)CC1` [Example 32, N-(1-cyanocyclopropyl)-3-(5-(difluoromethyl)-1,3,4-thiadiazol-2-yl)-8-(4-isobutyrylpiperazin-1-yl)imidazo[1,5-a]pyridine-6-sulfonamide], the solubility at 2 h in data set [1] (setting [3]) came out at 0.9 µM (≈ 0.496 µg/mL). Also, the solubility at 2 h in data set [1] (setting [4]) was 3.18 µM (≈ 1.75 µg/mL). The compound further gave an IC50 at PARG (setting [5]) of less than 100 nM. On PARG (PARG, TFMU-ADPr substrate), this compound yielded a half-maximal inhibitory concentration (IC50) of 0.77 nM. Also, in the data set “Mouse PK assay”, the “Area under the curve (0-last; hr*ng/mL)” value worked out at 13174 ng·h/mL, the “Peak concentration” value is 5317 ng/mL, the “Time to peak” value was 0.333 h and the bioavailability is 47%. Moreover, in “Mouse PK assay”, the half-life was 1.31 h and the MRT was 1.92 h. Further, the IC50 in data set [2] (setting [6]) was found to be 10.8 nM. In addition, in data set [2] (setting [7]), the IC50 was less than 100 nM.
